Read-outs that look alike come from different tables or passages of the source.

Experiment [1] has as its target T1, mouse DA transporter (DAT) (Mus musculus, UniProt Q61327).
T1 construct: Lack of DETQ effect on the endogenous DA transporter; from tissue; host or cells: mouse striatal brain slices
Put plainly: Fast-scan cyclic voltammetry of DA release in striatal slices. The following applies: bath application: DETQ 200 nM; cocaine 5 µM. On the procedure: Striatal DA release was measured using fast-scan cyclic voltammetry (FSCV) with a carbon fiber electrode (CFE; diameter 7 µm, length 50–100 µm) positioned approximately 100 µm below the surface of the slice. The CFE was scanned across a triangular waveform (−0.4 to +1.3 V, 400 V/s) at 10 Hz, and DA release was evoked by single-pulse electrical stimulation (30 µA, 0.5 ms) with an inter-stimulus interval of 180 s. DA release was evoked in the presence of DHBE (1 µM) to block nicotinic acetylcholine receptors. Peak background-subtracted DA oxidation current was measured at +0.6 V, and drugs were washed on after establishing a stable baseline.

For the next experiment, the system named is AlloLite-ctr. Put plainly: In vivo photometry of AlloLite-ctr in NAc. Also on record: species or system mouse. The following applies: DETQ 10 mg/kg. Here is the method:
Fiber photometry combined with optogenetics was conducted using a RZ10X LUX-I/O Processor with integrated LEDs (Tucker-Davis Technologies) combined with a filter/mirror minicube set (FMC6_IE(400-410)_E1(467-497)_F1(507-554)_E2(566-586)_F2(600-680)_S) (Doric Lenses). […] Low-autofluorescence patch cords (400 µm/0.57 NA, Doric) were attached to the optic fibers (400 µm/0.66 NA, Doric) on the mouse’s head to collect fluorescence emissions. Signals were filtered through 500–540 nm GFP emission filters coupled to a photodetector on the RZ10X. […] Data were sampled at 1017.3 Hz. […] For optogenetic stimulation, a 635 nm LED was passed through the 580–680 nm minicube F2 port and reached the mouse through the same unique optic fiber; the LED was driven at 1 to 3 mW. To determine the ‘temporal window for stable imaging’ in the PFC using dLight1.3b recordings, DAT^IREScre mice expressing ChrimsonR in VTA DA axons and dLight1.3b in the PFC were injected i.p. with vehicle at 0 min, followed by DETQ (10 mg/kg) 25 min later. […] DA release was measured with fiber photometry. […] After each injection, NAc DA axons were optically (opto) activated across 3 trials (2 s, 20 Hz, 20-ms pulses) every 5 min and DA released measured with fiber photometry. […] After each injection, NAc DA axons were optically (opto) inhibited (10 s, continuous trials) every 3 min (8 trials/condition) and DA released measured with fiber photometry. […] DA release was measured with fiber photometry.
For long-term recordings during optogenetic stimulation or chemogenetic inhibition linear fit was calculated across the entire recording or across the vehicle epoch; for event-related experiments fit was performed on fluorescent data obtained in the −60 to +60 s around opto events or −5 to −1 s around behavioral events. […] DA event-related responses were quantified by computing the value at the transient’s peak value and the AUC in the 0 to 10 s or 0 to 60 s period post-event onset. […]

The subject of a further experiment is dLight1.3b. Kind of experiment: NAc dLight1.3b photometry with food restriction. The settings on record: DETQ 10 mg/kg. It counts as in vivo, mouse. On the procedure:
To determine how metabolic state modulates tonic DA levels, DAT^IREScre mice expressing dLight1.3b in the NAc core were tested in either the fed state (ad libitum), the food-restricted state (mice food restricted to 90% of baseline body weight for 5–7 days), or after 4 weeks recovery from food-restriction (ad libitum). Daily food intake was measured per cage (2–3 mice per cage). […] Mice were injected i.p. with vehicle at 0 min and DETQ (10 mg/kg) 10–15 min later, then recording lasted 50 min.
For long-term recordings during optogenetic stimulation or chemogenetic inhibition linear fit was calculated across the entire recording or across the vehicle epoch; for event-related experiments fit was performed on fluorescent data obtained in the −60 to +60 s around opto events or −5 to −1 s around behavioral events. […] DA event-related responses were quantified by computing the value at the transient’s peak value and the AUC in the 0 to 10 s or 0 to 60 s period post-event onset. […] The maximal peak value of Veh-normalized ΔF/F0 after opto-onset was plotted over time and the plateau of maximal response was determined by averaging peak opto responses 5, 10, 15 and 20 min post-DETQ. […] AUC of the baseline was calculated within the +5 to +40 minutes time window post ip injection. […]

The conditions of experiment [2]: 10 and 30 mg/kg per os, ref Svensson et al 2017, cited from earlier work.

T1 sequence (Q61327 whole entry): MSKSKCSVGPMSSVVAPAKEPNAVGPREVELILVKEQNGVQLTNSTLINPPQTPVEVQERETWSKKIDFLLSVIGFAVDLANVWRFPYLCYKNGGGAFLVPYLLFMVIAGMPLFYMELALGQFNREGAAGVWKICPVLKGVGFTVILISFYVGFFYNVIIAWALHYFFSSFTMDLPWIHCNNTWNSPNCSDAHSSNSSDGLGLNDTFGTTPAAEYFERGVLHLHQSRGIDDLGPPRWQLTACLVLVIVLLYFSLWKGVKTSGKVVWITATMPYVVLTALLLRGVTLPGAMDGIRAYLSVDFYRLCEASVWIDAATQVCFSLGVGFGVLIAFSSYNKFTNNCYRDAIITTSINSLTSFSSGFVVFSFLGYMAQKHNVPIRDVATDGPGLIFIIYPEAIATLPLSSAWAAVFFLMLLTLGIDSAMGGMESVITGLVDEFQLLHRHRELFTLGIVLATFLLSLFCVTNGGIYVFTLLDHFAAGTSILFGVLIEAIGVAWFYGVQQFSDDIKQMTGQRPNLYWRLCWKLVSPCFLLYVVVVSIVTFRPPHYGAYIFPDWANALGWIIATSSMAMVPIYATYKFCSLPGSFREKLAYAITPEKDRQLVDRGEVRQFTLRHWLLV

With `C[C@H]1c2cccc(C(C)(C)O)c2C[C@H](CO)N1C(=O)Cc1c(Cl)cccc1Cl` [DETQ, 2-(2,6-dichlorophenyl)-1-((1S,3R)-3-(hydroxymethyl)-5-(2-hydroxypropan-2-yl)-1-methyl-3,4-dihydroisoquinolin-2(1H)-yl)ethan-1-one], in experiment [1], the “decay constant (tau) of DA signals” value is given as “no effect” and the “peak DA release” value is recorded as “no effect”. Also, in the experiment with AlloLite-ctr, the “increase in baseline signal after DETQ administration” value was “completely absent”; the “opto-evoked DA peaks of AlloLite-ctr upon DETQ” value is “retained the same amplitude and kinetics”. For the same compound, the “step-like increase in baseline fluorescence, food-restriction versus ad libitum state” value in the experiment on dLight1.3b is “significantly higher”. For the same compound, in experiment [2] (hD1 mice), the behavioral activity entry is given as “pronounced behavioral activation”. The behavioral activity result in experiment [2] (wild type mice) was “no behavioral activity”.

These data come from publication PMC11219860, “A chemogenetic approach for dopamine imaging with tunable sensitivity” (Nature Communications, 2024).
